From publication PMC3901259, “Characterisation of the Metabolites of 1,8-Cineole Transferred into Human Milk: Concentrations and Ratio of Enantiomers” (Metabolites, 2013)

Test: Determination of the ratios of enantiomers of chiral metabolites in human milk on chiral GC capillaries
Format: in vivo
From the text: The separation of the chiral metabolites of 1,8-cineole was successfully achieved using different β- or γ-cyclodextrin-based stationary phases (Rt-bDEXsa, Rt-bDEXse, Rt-bDEXsm and Rt-yDEXsa) for gas chromatographic analysis. Table S1, in the supplementary material, lists the usable separation phases and the respective retention indices (determined according to van den Dool and Kratz) for each pair of enantiomers. It was therefore decided to use the following capillaries for the analysis of the human milk samples: Rt-bDEXsm for separation of 2,3-dehydro-, α2,3-epoxy-, 2-oxo-, 3-oxo- and 9-hydroxy-1,8-cineole, and Rt-yDEXsa for separation of α2-hydroxy-, α3-hydroxy- and β2-hydroxy-1,8-cineole, under the GC conditions described in the experimental section.
For GC-MS analyses, an Agilent MSD quadrupole system (GC 7890A with MSD 5975C, Agilent Technologies, Waldbronn, Germany) coupled with a CIS 4C (cooled injection system) and an MPS 2 auto-sampler (Gerstel GmbH & Co. KG, Duisburg, Germany) were used. Data collection and analysis were performed with the MSD ChemStation E.02.00.493 (Agilent Technologies, Inc.) software. Quantification experiments were carried out on DB-FFAP and DB-5 capillaries (30 m length, 0.25 mm inner diameter, 0.25 µm film thickness, Agilent J&W GC Columns, USA), and for monitoring of the ratio of enantiomers the chiral capillaries Rt-bDEXsa, Rt-bDEXse, Rt-bDEXsm and Rt-yDEXsa (30 m length, 0.32 mm inner diameter, 0.25 µm film thickness, Restek GmbH, Bad Homburg, Germany) were utilised. Pre-columns of uncoated, deactivated fused silica (0.53 mm inner diameter, 0.5 to 3.5 m length) were used to ensure that no potentially present low-volatile residues could contaminate the analytical capillaries. The temperature programme of the column oven was as follows: 40 °C for 2 min, 4 °C/min up to 170 °C, 40 °C/min up to 230 °C (Rt-DEX capillaries), 240 °C (DB-FFAP) and 250 °C (DB-5), respectively, and hold time at end temperature of 5 to 10 min. As carrier gas, helium was used at a flow rate of 1.3 mL/min (velocity 41.1 cm/s). Injection of 1 or 2 µL was performed by the auto-sampler.
For the separation of the pairs of enantiomers of the chiral metabolites of 1,8-cineole, four different capillaries (Rt-bDEXsa, Rt-bDEXse, Rt-bDEXsm, and Rt-yDEXsa) were evaluated for optimisation of the peak-to-peak resolution of the enantiomers by injecting a mixture of all the metabolites in a dichloromethane solution and by varying the heating rate. Besides the separation of each pair of enantiomers from each other, it was also important to confirm that no other metabolite coeluted with any one of the enantiomers, because the milk samples would most probably contain all metabolites. Moreover, the separation conditions for the mixture of reference substances were also tested on some human milk sample extracts and modified accordingly, where necessary, to avoid coelution with interfering matrix compounds.
For calculation of the ratio of enantiomers (that is, the relative abundance of each enantiomer to the not separated mixture of enantiomers), the peak area of each enantiomer was divided by the sum of the peak areas of both enantiomers and multiplied by 100. With the known concentrations of the chiral metabolites in each milk sample, the absolute concentration of each single enantiomer was also calculated by multiplying the concentration with the respective percentage.

Enantiomeric ratio in human milk: nearly enantiomerically pure
Percentage E1 in single sample (outlier) (human milk sample B-2a, excluded from Table 3): 40.5%
Percentage E1, range as described for boxplot (human milk samples, Figure 5): under 10%
SMILES: CC1(C)OC2(C)CCC1CC2O (stereo not drawn) [a2-hydroxy-1,8-cineole, α2-hydroxy-1,8-cineole]
